Measured values from patent US11691962B2 (eXIthera Pharmaceuticals, Inc., priority 2018, dated 2023).

How the values were obtained:
[1] = Determination of bioavailability in a dog; assay type: in vivo; settings: plasma, male beagle dogs, IV bolus 1 mg/kg vs oral gavage 5 mg/kg, AUC comparison
Method: The following protocol was used to estimate the bioavailability of test compounds in a dog. Test compounds were formulated in vehicles compatible with intravenous and oral dosing. Test compounds were administered to male beagle dogs via an intravenous bolus at 1 mg/kg (1 mg/mL at a dose volume of 1 mL/kg) or via oral gavage at 5 mg/kg (1 mg/mL at a dose volume of 5 mL/kg). Blood samples were collected via the contralateral (to intravenous bolus) jugular vein or via other accessible vein, at various timepoints following administration out to 24 hours post dose. Plasma samples (EDTA) were obtained by centrifugation (2200×g for 10 minutes at 5° C.) and stored frozen ([…]) until analyzed for parent compound via LC/MS/MS. Pharmacokinetic parameters were estimated from the plasma concentration time data by standard non-compartmental methods utilizing standard analysis software. By comparing the area under the curve (AUC) for IV and PO administration estimates of oral bioavailability were determined.

beagle dog hepatocytes = experiment: Metabolic stability in dog hepatocytes; assay type: in vitro ADME; settings: 2 μM compound
In short: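 Pooled cryopreserved beagle hepatocytes at 500,000 cells/mL in Krebs-Henseleit buffer with 2 μM compound, 37 °C, 5% CO2, sampled out to 180 min. Acetonitrile-quenched samples analysed by LC-MS/MS; percent remaining from peak area versus time zero.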

Caco-2 cells = experiment: Caco-2 cell permeability assay; assay type: in vitro ADME, human; settings: Papp, 10 μM, 37° C.
In short: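 Caco-2 monolayers (days 21-25 post-seeding) received 10 μM compound in HBSS-MES pH 6.5 or HBSS-HEPES pH 7.4 (1% DMSO) at 37 °C, for 60 min A-B or 40 min B-A. Donor and receiver samples were quantified by HPLC-MS/MS (SRM), and Papp and recovery were calculated.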

human plasma protein = experiment: Plasma protein binding by equilibrium dialysis; assay type: in vitro ADME; settings: pooled human plasma, 10 μM, 4 hours at 37° C.
In short: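 Pooled mixed-gender human plasma spiked with compound at 10 μM was dialysed against PBS pH 7.4 for 4 h at 37°C. Both compartments were quantified by HPLC-MS/MS, and % bound was calculated from plasma vs buffer peak areas.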

Row | Molecule | bioavailability [1] | further results
1 | CC[C@@H](NC(=O)N1C(=O)[C@H](Cc2ccnc(N)c2)[C@H]1C(=O)N(C)c1ccn(C)n1)c1ccccc1 [Compound 1-3, (2S,3R)-3-((2-aminopyridin-4-yl)methyl)-N2-(1-methyl-1H-pyrazol-3-yl)-N1-((R)-1-phenylpropyl)-N2-methyl-4-oxoazetidine-1,2-dicarboxamide] | > 30% | –
2 | CC[C@@H](NC(=O)N1C(=O)[C@H](Cc2ccnc(N)c2)[C@H]1C(=O)N(C)c1ccnn1C)c1cccc(Cl)c1 [Compound 1-4, (2S,3R)-3-((2-aminopyridin-4-yl)methyl)-N2-(1-methyl-1H-pyrazol-5-yl)-N1-((R)-1-(3-chlorophenyl)propyl)-N2-methyl-4-oxoazetidine-1,2-dicarboxamide] | > 30% | –
3 | CC[C@@H](NC(=O)N1C(=O)[C@H](Cc2ccnc(N)c2)[C@H]1C(=O)N(C)c1cccs1)c1ccccc1 [Compound 1-10, (2S,3R)-3-((2-aminopyridin-4-yl)methyl)-N2-(thiophen-2-yl)-N1-((R)-1-phenylpropyl)-N2-methyl-4-oxoazetidine-1,2-dicarboxamide] | 11 to 30% | –
4 | CC[C@@H](NC(=O)N1C(=O)[C@H](Cc2ccnc(N)c2)[C@H]1C(=O)N(C)c1nccn1C)c1ccccc1 [Compound 1-13, (2S,3R)-3-((2-aminopyridin-4-yl)methyl)-N2-(1-methyl-1H-imidazol-2-yl)-N1-((R)-1-phenylpropyl)-N2-methyl-4-oxoazetidine-1,2-dicarboxamide] | > 30% | –
5 | CC[C@@H](NC(=O)N1C(=O)[C@H](Cc2cc(C)nc(NC)c2)[C@H]1C(=O)N(C)c1nccn1C)c1ccccc1 [Compound 1-45, (2S,3R)-3-((2-methylamino-6-methylpyridin-4-yl)methyl)-N2-(1-methyl-1H-imidazol-2-yl)-N1-((R)-1-phenylpropyl)-N2-methyl-4-oxoazetidine-1,2-dicarboxamide] | 11 to 30% | –
6 | CC[C@@H](NC(=O)N1C(=O)[C@H](Cc2cc(C)nc(N)c2)[C@H]1C(=O)N(C)c1nccn1C)c1ccccc1 [Compound 1-51, (2S,3R)-3-((2-amino-6-methylpyridin-4-yl)methyl)-N2-(1-methyl-1H-imidazol-2-yl)-N1-((R)-1-phenylpropyl)-N2-methyl-4-oxoazetidine-1,2-dicarboxamide] | > 30% | –
7 | CC[C@@H](NC(=O)N1C(=O)[C@H](Cc2ccnc(N)c2)[C@H]1C(=O)N(C)c1nccn1C)c1ccc(C)nc1 [Compound 1-81, (2S,3R)-3-((2-aminopyridin-4-yl)methyl)-N2-(1-methyl-1H-imidazol-2-yl)-N1-((R)-1-(6-methylpyridin-3-yl)propyl)-N2-methyl-4-oxoazetidine-1,2-dicarboxamide] | < 10% | –
8 | (2S,3R)-3-((2-amino-6-methylpyridin-4-yl)methyl)-N2-(1-methyl-1H-imidazol-2-yl)-N1-((R)-1-(3-fluorophenyl)propyl)-N2-methyl-4-oxoazetidine-1,2-dicarboxamide [Compound 1-120] | – | Dog Hepatocyte Stability (t1/2) (beagle dog hepatocytes): N (“N” indicates > 240 min); Caco-2 Permeability (A-B) (Caco-2 cells; apical to basolateral, 60 min): P (“P” indicates < 10 × 10^−6 cm/s); Caco-2 Permeability (B-A) (Caco-2 cells; basolateral to apical, 40 min): Q (“Q” indicates 11-30 × 10^−6 cm/s); PPB (%) (human plasma protein): Z (“Z” indicates 50-90%)

Now from value to molecule, other results behind:

Row | bioavailability [1] | Molecule | further results
9 | > 30% | CC[C@@H](NC(=O)N1C(=O)[C@H](Cc2cc(C)nc(N)c2)[C@H]1C(=O)N(C)c1ccn(C)n1)c1cccc(Cl)c1 [Compound 1-89, (2S,3R)-3-((2-amino-6-methylpyridin-4-yl)methyl)-N2-(1-methyl-1H-pyrazol-3-yl)-N1-((R)-1-(3-chlorophenyl)propyl)-N2-methyl-4-oxoazetidine-1,2-dicarboxamide] | –
10 | > 30% | CC[C@@H](NC(=O)N1C(=O)[C@H](Cc2ccnc(N)c2)[C@H]1C(=O)N(C)c1ccn(C)n1)c1cccc(Cl)c1 [Compound 1-91, (2S,3R)-3-((2-aminopyridin-4-yl)methyl)-N2-(1-methyl-1H-pyrazol-3-yl)-N1-((R)-1-(3-chlorophenyl)propyl)-N2-methyl-4-oxoazetidine-1,2-dicarboxamide] | –
11 | > 30% | CC[C@@H](NC(=O)N1C(=O)[C@H](Cc2ccnc(N)c2)[C@H]1C(=O)N(C)c1ccnn1C)c1ccccc1 [Compound 1-92, (2S,3R)-3-((2-aminopyridin-4-yl)methyl)-N2-(1-methyl 1H-pyrazol-5-yl)-N1-((R)-1-phenylpropyl)-N2-methyl-4-oxoazetidine-1,2-dicarboxamide] | –
